# According to PubChem BioAssay AID1645848:
# Conditions: buffer; pH 7.4; 6.0 h; 150.0 µM
row,solubility kinetic [µg/mL],Structure (SMILES)
1,< 1,Cc1ccc(S(=O)(=O)Nc2cnccc2C(=O)Nc2nc(-c3ccc(C)c(C)c3)cs2)cc1
2,> 46,OCCNc1ncnc2c1ncn2[C@@H]1O[C@@H](CO)[C@H](O)[C@@H]1O
3,< 1,Cc1ccc(S(=O)(=O)Nc2ccc(OC(F)(F)F)cc2C(=O)Nc2nc(-c3ccccc3)cs2)cc1
4,< 1,O=C1CCCC2=C1C(c1ccccc1I)N=C(Nc1nc3ccccc3o1)N2 (centres undefined)
5,< 1,Cc1ccc(S(=O)(=O)Nc2cnccc2C(=O)Nc2nc(-c3ccc(F)cc3)cs2)cc1
6,59.1,COC(=O)c1cc(Cl)ccc1NC(=O)CSc1ncc(S(=O)(=O)c2ccc(Br)cc2)c(=O)[nH]1
7,> 75,C[C@@H](NC(=O)c1ncnc(N)c1Cl)c1ncc(C(=O)Nc2cc(C(F)(F)F)c(Cl)cn2)s1
8,> 43,CC(C)c1cc(C(=O)N2CC[C@@H](NC(=O)C3CC3)C2)n[nH]1
9,< 1,COC(=O)c1ccc(NC(=O)c2nc3ccccc3n(C)c2=O)cc1
10,< 1,Oc1ccc(CNc2cccc(F)c2)c2cccnc12
11,< 1,CC(C)(C)c1cc(NC(=O)Nc2ccc(-c3cn4c(n3)sc3cc(OCCN5CCOCC5)ccc34)cc2)no1
12,< 1,CN(Cc1cccs1)c1ncnc2ccc(-c3ccc4c(c3)OCO4)cc12
13,2.36,O=S(=O)(Nc1nccs1)c1ccc(Nc2nc(-c3ccc(F)cc3)cs2)cc1
14,36.5,Cc1cc(-c2nnc3n2CCCCC3)c(C)n1-c1cccc(Cl)c1
15,36.6,C=C[C@]1(C)C[C@@H](OC(=O)CSC(C)(C)CNC(=O)[C@H](N)C(C)C)[C@]2(C)[C@H](C)CC[C@]3(CCC(=O)[C@H]32)[C@@H](C)[C@@H]1O
16,< 1,Cc1ccc([S+](=O)([O-])n2cc(Cc3ccc(-c4ccccc4)cc3)c3ccccc32)cc1
17,< 1,CCCc1ccc(NC(=O)c2ccc3c(c2)NC(=O)CS3)cc1
18,< 1,COCCNCc1ccc(-c2cc3nccc(Oc4ccc(NC(=S)NC(=O)Cc5ccc(F)cc5)cc4F)c3s2)nc1
19,< 1,Cc1ccnc(NC(=S)N2CCN(c3cc(F)cc(Cl)c3)CC2)c1
20,< 1,FC(F)(F)c1ccc(CN2CCNc3cc(Nc4ccccc4)ncc3C2)cc1
21,< 1,CCN1CCc2c(sc(NC(=O)Nc3ccc(Cl)c(Cl)c3)c2C(N)=O)C1
22,34,CCOC(=O)c1c[nH]c2c3c(ccc2c1=O)CCCC3
23,< 1,O=C(Nc1ncc(Cc2ccc(C(F)(F)F)cc2)s1)c1ccc(-c2cccnc2)o1
24,< 1,CC(=O)Nc1cccc(-c2nc(-c3c(C)noc3C)cc3c2cc(-c2ccccc2)n3C)c1

row,solubility kinetic [µg/mL],Structure (SMILES)
1,57.3,CN1CCN(Cc2ccc(NC(=O)Cc3ccc(Oc4cc(NC(=O)C5CC5)ncn4)cc3)cc2C(F)(F)F)CC1
2,0.918,Cc1ccc(S(=O)(=O)Nc2cnccc2C(=O)Nc2nc(-c3ccc(Oc4ccccc4)cc3)cs2)cc1
3,> 44,CC(=O)Nc1ccc(S(=O)(=O)Nc2nccs2)cc1
4,> 52,CCC[C@@H]1CN(C(=O)c2ccc(-c3ccc(C)o3)cc2)C[C@H]1NC(C)=O
5,15.4,Cc1ccc(S(=O)(=O)Nc2cnccc2C(=O)Nc2nc(-c3cccc(C)c3)cs2)cc1
6,< 1,O=C(O)Cc1ccc2oc(-c3ccc(NC(=O)/C=C/c4ccc(Br)cc4)c(F)c3)nc2c1
7,> 78,CC(C)(N)C(=O)N[C@H](COCc1ccccc1)C(=O)N1CCC2(CC1)CN(S(C)(=O)=O)c1ccccc12
8,> 65,Cc1ccccc1-c1nc(CN2CCC(C(=O)NCCCN3CCOCC3)CC2)c(C)o1
9,> 67,CCOC(=O)N1CCN(Cc2nc3c(c(=O)n(C)c(=O)n3C)n2Cc2cccc(C)c2)CC1
10,> 45,NC(=O)C1CCN(c2nc(-c3ccc(F)cc3)cs2)CC1
11,32.8,COc1ccc(NC(=O)c2c(C)cccc2C)cc1[S+](=O)([O-])N(C)C
12,< 1,COc1ccc(Cn2c(CCC(=O)Nc3cc(C)cc(C)c3)nc3cccnc32)cc1
13,< 1,COc1cccc(CNC(=O)c2ccc(N3CCCC3)c(NC(=O)Nc3ccccc3F)c2)c1
14,> 45,Clc1cccc(COc2cncc(N3CCNCC3)n2)c1
15,> 45,COc1ccc(CCn2c(N)cc(=O)[nH]c2=S)cc1OC
16,31.9,COc1ccc(-c2ccc3ncc(Nc4ccncc4)n3n2)cc1OC
17,> 67,N#Cc1cnc(NS(=O)(=O)c2ccc(NC(=O)Cc3ccc(F)c(Cl)c3)cc2)s1
18,20.9,Cc1cc(-c2nnc3n2CCCCC3)c(C)n1-c1ccc(C(C)(C)C)cc1
19,> 54,CS(=O)(=O)c1ccccc1-c1csc(N2CCC(C(N)=O)CC2)n1
20,29.2,COc1ccc(/C=C2/C(=O)Nc3ccccc32)cc1O
21,2.63,COc1ccc(OC)c(-c2nnc3n2N=C(c2c(OC)cccc2OC)CS3)c1
22,4.52,NC(=O)C1CCN(c2ncc(-c3ccc4c(c3)OCCO4)s2)CC1
23,7.52,Cc1cnc(-c2ccccc2C(C)C)nc1NCC1CCN(c2cccnc2)C1 (centres undefined)
24,18.7,CN1CCN(C2=Nc3ccccc3Sc3ccc(Cl)cc32)CC1

row,solubility kinetic [µg/mL],Structure (SMILES)
1,> 92,CC(=O)NCCNC(=O)c1ccc(-c2ncc3cnc(-c4cccc(F)c4)cn23)cc1
2,1.96,CC(=O)c1c(C)[nH]c(C(=O)Nc2ccc(Cl)cc2)c1C
3,41.9,Cc1cnc(CNc2nc(-c3ccccc3Cl)nc3ccccc23)cn1
4,> 58,O=C1Nc2ccccc2/C1=C\c1cc(Br)c(O)c(Br)c1
5,27.2,O=C([C@@H]1CCCN(c2ccc3[nH]c(C4(n5cc(Cl)cn5)CC4)nc3n2)C1)N1CCCC1
6,40,Cc1cc(N2CCN(c3ccccc3)CC2)nc(-n2nc(C)cc2C)n1
7,> 56,Cc1cnc(-c2ccccc2C(C)C)nc1NCC1CCN(C2COC2)CC1
8,2.16,CC(=O)N1CCc2c(sc3c2c(=O)n(-c2ccccc2Cl)c(=O)n3Cc2cccc(C)c2)C1
9,< 1,CCOc1cccc(C(=O)Nc2nc3c(s2)CC(C(C)(C)C)CC3)c1 (centres undefined)
10,3.08,CC1Cc2cc(S(=O)(=O)NCc3ccc(N(C)C)cc3)ccc2N1C(=O)C1CCC1 (centres undefined)
11,< 1,Cc1ccc(S(=O)(=O)Nc2cncc(C(=O)Nc3nc(-c4ccccc4)cs3)c2)cc1
12,< 1,COC(=O)Nc1nc2ccc(SC(C)C)cc2[nH]1
13,1.94,CNc1ccc(Br)cc(C(=O)/C=C/c2ccc(OC)cc2OC)c1=O
14,4.67,O=S(=O)(Nc1cccc2ccncc12)c1ccc(NCc2cccc(Cl)c2O)cc1
15,< 1,c1ccc(-c2csc3ncnc(Sc4nnn(-c5ccccc5)n4)c23)cc1
16,7.05,O=C(Nc1ccc([S+](=O)([O-])Nc2nccs2)cc1)c1ccccn1
17,< 1,Cc1ccc(Nc2nc(C)c(NC(=O)c3ccc(C)cc3)c(Nc3ccc(C)cc3)n2)cc1
18,9.29,O=C1Nc2ccccc2/C1=C\c1ccc(O)c(F)c1
19,5.15,COc1cccc(CNCc2cccn2-c2nnc(N3CCN(c4ccccc4)CC3)s2)c1
20,> 55,OCCOCCN1CCN(C(c2ccccc2)c2ccc(Cl)cc2)CC1 (centres undefined)
21,> 30,COC(=O)c1ccc2c(c1)nc1n2[C@@H](CNC(C)=O)COC1
22,< 1,Cn1c(=O)cc(C(=O)NC2CCCc3c2[nH]c2c(Cl)cccc32)c2ccccc21 (centres undefined)
23,< 1,O=C1c2ccccc2C2=Nc3ccccc3SC(c3ccccc3F)C12 (centres undefined)
24,> 61,COc1cc([C@@H]2c3cc4c(cc3[C@H](O)[C@H]3COC(=O)[C@H]23)OCO4)cc(OC)c1OC

row,solubility kinetic [µg/mL],Structure (SMILES)
1,> 49,CN(C(=O)CSc1nc2c(c(=O)[nH]1)CCCC2)c1ccccc1
2,6.87,CCc1ccc(C2N=C(N)Nc3nc4ccccc4n32)cc1 (centres undefined)
3,> 57,COc1cccc(C(=O)Nc2nnc(S(=O)(=O)N3CCOCC3)s2)c1
4,2.64,O=S(=O)(Nc1ccccc1)c1ccc(NCc2cccc(Cl)c2O)cc1
5,1.27,C#CCNC(=O)c1nc(-c2ccc([S+](C)(=O)[O-])cc2)c2ccccn12
6,< 1,CCOC(=O)C1CCN(c2nc(-c3ccc(Br)cc3)cs2)CC1
7,27.6,CN(C)C(=O)c1nc(-c2ccc(Cl)nc2)c2ccccn12
8,2.58,COc1cccc(CNC(=O)CCCn2nc(C)c3c(C)n(-c4ccc(C)cc4)nc3c2=O)c1OC
9,5.59,Cc1cccc(-n2cnc3cc(C(=O)N4CCCC(C(C)C)C4)ccc32)c1 (centres undefined)
10,> 67,COc1ccc(-c2nc3ncccc3[nH]2)cc1
11,< 1,O=C(NCc1cccs1)c1cn2cc(-c3ccccc3)sc2n1
12,> 40,Cc1cccc2c(C(=O)O)cc(-c3cccs3)nc12
13,< 1,COc1ccccc1C(=O)N1CCc2cc(-c3nc(NC(=O)Cc4ccc5c(c4)OCO5)sc3C)ccc21
14,> 63,Cc1ccc(S(=O)(=O)Nc2cnccc2C(=O)Nc2nc3ccccc3s2)cc1
15,< 1,CCCC1=Nc2cc(C(=O)NC3CCCC3)ccc2Sc2ccc(C)cc21
16,< 1,O=C(Nc1ccc(N2CCN(c3ncccc3C(F)(F)F)CC2)nc1)c1cccs1
17,< 1,COC(=O)c1cccc(NC(=O)c2cnc(-c3ccc(F)cc3)nc2-c2ccncc2)c1
18,37.4,COc1ccccc1CNc1ccc(S(=O)(=O)Nc2nccs2)cc1
19,> 45,NC(=O)C1CCN(c2nc(-c3ccc(N)cc3)cs2)CC1
20,17.7,NC(=O)C1CCN(c2ncc(-c3cccc(F)c3)s2)CC1
21,< 1,CCc1ccc(C(=O)Nc2cc(CN3CCN(C)CC3)cc(C(F)(F)F)c2)cc1C#Cc1cnc2ccnn2c1
22,< 1,CC(=O)N1CCC2(CCCN(c3ccc(-c4ccccc4)cc3)C2)CC1
23,> 63,Cc1ccc(S(=O)(=O)Nc2cnccc2C(=O)Nc2nc(C3CCC3)cs2)cc1

row,Structure (SMILES),solubility kinetic [µg/mL]
1,CN[C@@H]1C[C@@H](c2ccc(Cl)c(Cl)c2)c2ccccc21,> 43
2,COc1cc2c3cc1Oc1c(O)c(OC)cc4c1[C@@H](Cc1ccc(cc1)Oc1cc(ccc1O)C[C@H]3N(C)CC2)N(C)CC4,> 88
3,CCC(CC)c1cc([C@H]2CN3CC[C@H]2C[C@@H]3CNC(=O)Cc2cccs2)nc(-c2ccncc2)n1,> 72
4,CCOc1ccc(CCNC(=O)c2cc3ncccc3n2Cc2cccc(C)n2)cc1OCC,> 68
